From patent publication US12398107B2, “Fungicidal nitroanilino substituted pyrazoles” (FMC Corporation, priority 2018, dated 2025)

What was measured:
Format in all cases: in vivo
[1] = test system: Blumeria graminis f. sp. tritici; assay: Test C: wheat powdery mildew, preventive spray on wheat seedlings; conditions: rated after 8 days, 100 = 100% disease control, 0 = no control; for Test C disease control rating (wheat powdery mildew) / pest or weed control at 50 ppm: 50 ppm
Summary of the method: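 Compound dissolved in acetone (3% of final volume), then suspended in 50/50 acetone/water with 250 ppm PEG400 and sprayed to run-off on wheat seedlings. Inoculated next day with B. graminis f. sp. tritici spore dust, kept 8 days at 20° C; visual rating, 100 = full control, 0 = none, relative to controls.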

Phakopsora pachyrhizi = assay: Test D: Asian soybean rust, preventive spray on soybean seedlings; conditions: 100 = 100% disease control, 0 = no control; for Test D disease control rating (Asian soybean rust) / pest or weed control at 50 ppm: 50 ppm
Summary of the method: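 Soybean seedlings sprayed to run-off with compound suspension (ppm, in 50/50 acetone/water with 250 ppm PEG400), inoculated next day with P. pachyrhizi spores, held 24 h saturated at 22°C then 8 days at 22°C. Visual rating 0-100% disease control relative to controls.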

Botrytis cinerea = assay: Test E: tomato Botrytis, preventive spray on tomato seedlings; conditions: 100 = 100% disease control, 0 = no control; for Test E disease control rating (tomato Botrytis) / pest or weed control at 50 ppm: 50 ppm
Summary of the method: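 Tomato seedlings sprayed to run-off with compound (ppm) in acetone/water with 250 ppm PEG400, then inoculated next day with B. cinerea spores. Held 48 h at 20 °C in saturated atmosphere, then 3 days at 24 °C. Visual rating 0–100% disease control relative to untreated controls.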

Alternaria solani = assay: Test F: tomato early blight, preventive spray on tomato seedlings; conditions: 100 = 100% disease control, 0 = no control; for Test F disease control rating (tomato early blight) / pest or weed control at 50 ppm: 50 ppm
Summary of the method: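 Compounds in acetone/water (50/50) with 250 ppm PEG400, dosed in ppm, sprayed to run-off on tomato seedlings; next day inoculated with A. solani spores. Held 48 h saturated at 27° C, then 3 days at 20° C; visual rating 0–100% disease control relative to controls.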

[2] = test system: Puccinia recondita f. sp. tritici; assay: Test B: wheat leaf rust, preventive spray on wheat seedlings; conditions: 100 = 100% disease control, 0 = no control relative to controls; for Test B disease control rating (wheat leaf rust) / pest or weed control at 50 ppm: 50 ppm
Summary of the method: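 Compounds in acetone/water (50/50) with 250 ppm PEG400, sprayed to run-off on wheat seedlings at stated ppm; inoculated next day with P. recondita spores. Held 24 h saturated at 20° C., then 7 days in growth chamber at 20° C.; rating 0–100 = % disease control vs controls.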

Septoria tritici = assay: Test A: wheat leaf blotch, preventive spray on wheat seedlings; conditions: 100 = 100% disease control, 0 = no control relative to controls; for Test A disease control rating (wheat leaf blotch) / pest or weed control at 50 ppm: 50 ppm
Summary of the method: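 Compounds were suspended in acetone/water (50/50) with 250 ppm PEG400 and sprayed to run-off on wheat seedlings. The next day the seedlings were inoculated with Septoria tritici spores, held 48 h at 24 °C in saturated humidity, then 17 days at 20 °C. Disease control was rated 0–100 relative to controls.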

[3] = Blumeria graminis, 192 h, read-out: Test C disease control rating (wheat powdery mildew)
[4] = Phakopsora pachyrhizi, read-out: Test D disease control rating (Asian soybean rust)
[5] = Botrytis cinerea, read-out: Test E disease control rating (tomato Botrytis)
[6] = Alternaria solani, read-out: Test F disease control rating (tomato early blight)
[7] = read-out: Test B disease control rating (wheat leaf rust)
[8] = Zymoseptoria tritici, read-out: Test A disease control rating (wheat leaf blotch)

SMILES | Test C disease control rating (wheat powdery mildew) [1] [%] | Test D disease control rating (Asian soybean rust) (Phakopsora pachyrhizi) [%] | Test E disease control rating (tomato Botrytis) (Botrytis cinerea) [%] | Test F disease control rating (tomato early blight) (Alternaria solani) [%] | Test B disease control rating (wheat leaf rust) [2] [%] | Test A disease control rating (wheat leaf blotch) (Septoria tritici) [%] | pest or weed control at 10 ppm ([1]; Blumeria graminis, 192 h, 10 ppm, read-out: Test C disease control rating (wheat powdery mildew)) [%] | pest or weed control at 50 ppm [1, 3] [%] | pest or weed control at 10 ppm (Phakopsora pachyrhizi; Phakopsora pachyrhizi, 10 ppm, read-out: Test D disease control rating (Asian soybean rust)) [%] | pest or weed control at 50 ppm (Phakopsora pachyrhizi; [4]) [%] | pest or weed control at 10 ppm (Botrytis cinerea; Botrytis cinerea, 10 ppm, read-out: Test E disease control rating (tomato Botrytis)) [%] | pest or weed control at 50 ppm (Botrytis cinerea; [5]) [%] | pest or weed control at 10 ppm (Alternaria solani; Alternaria solani, 10 ppm, read-out: Test F disease control rating (tomato early blight)) [%] | pest or weed control at 50 ppm (Alternaria solani; [6]) [%] | pest or weed control at 10 ppm ([2]; 10 ppm, read-out: Test B disease control rating (wheat leaf rust)) [%] | pest or weed control at 50 ppm [2, 7] [%] | pest or weed control at 10 ppm (Septoria tritici; Zymoseptoria tritici, 10 ppm, read-out: Test A disease control rating (wheat leaf blotch)) [%] | pest or weed control at 50 ppm (Septoria tritici; [8]) [%]
COc1ccc(-c2c(C)nn(C)c2Nc2c(Cl)cccc2[N+](=O)[O-])c(Cl)c1 [Compound 184] | 21 | 0 | 100 | 26 | 100 | 100 | – | – | – | – | – | – | – | – | – | – | – | –
Cc1ccc(Nc2c(-c3c(F)cccc3F)c(C)nn2C)c([N+](=O)[O-])c1 [Compound 105] | 86 | 0 | 73 | 0 | 74 | 99 | – | – | – | – | – | – | – | – | – | – | – | –
CCOc1ccc(Nc2c(-c3ccc(F)cc3Cl)c(C)nn2C)c([N+](=O)[O-])c1 [Compound 103] | 50 | 0 | 83 | 0 | 80 | 97 | – | – | – | – | – | – | – | – | – | – | – | –
Cc1nn(C)c(Nc2c(F)cccc2[N+](=O)[O-])c1-c1c(F)cc(F)cc1Cl [Compound 68, 4-(2-chloro-4,6-difluorophenyl)-N-(2-fluoro-6-nitrophenyl)-1,3-dimethyl-1H-pyrazol-5-amine] | – | – | – | – | – | – | 96 | 100 | 32 | 99 | 100 | 100 | 98 | 99 | 100 | 100 | 100 | 100
Cc1cc(F)c(Nc2c(-c3ccc(Cl)cc3Cl)c(C)nn2C)c([N+](=O)[O-])c1 [Compound 143] | 96 | 87 | 99 | 100 | 100 | 99 | – | – | – | – | – | – | – | – | – | – | – | –
Cc1nn(C)c(Nc2c(F)cc(Cl)cc2[N+](=O)[O-])c1-c1c(F)cccc1F [Compound 98] | 93 | 0 | 99 | 98 | 97 | 100 | – | – | – | – | – | – | – | – | – | – | – | –
Cc1nn(C)c(Nc2c(F)cc(Br)cc2[N+](=O)[O-])c1-c1ccc(C#N)cc1Cl [Compound 155] | 90 | 0 | 100 | 93 | 99 | 99 | – | – | – | – | – | – | – | – | – | – | – | –
Cc1nn(C)c(Nc2c(Cl)cc(F)cc2[N+](=O)[O-])c1-c1ccc(C#N)cc1Cl [Compound 18, 3-chloro-4-[5-[(2-chloro-4-fluoro-6-nitrophenyl)amino]-1,3-dimethyl-1H-pyrazol-4-yl]benzonitrile] | – | – | – | – | – | – | – | 89 | – | 92 | – | 100 | – | 99 | – | 100 | – | 100
COc1ccc(-c2c(C)nn(C)c2Nc2ccccc2[N+](=O)[O-])c(Cl)c1 [Compound 140] | 31 | 0 | 100 | 93 | 86 | 99 | – | – | – | – | – | – | – | – | – | – | – | –
CCc1nn(C)c(Nc2c(F)cc(F)cc2[N+](=O)[O-])c1-c1ccc(F)cc1Cl [Compound 95] | 100 | 84 | 99 | 99 | 100 | 100 | – | – | – | – | – | – | – | – | – | – | – | –
Cc1nn(C)c(Nc2c(F)cc(Br)cc2[N+](=O)[O-])c1-c1ccc(F)cc1F [Compound 56] | 100 | 65 | 99 | 99 | 100 | 100 | – | – | – | – | – | – | – | – | – | – | – | –
COc1cc(Cl)c(Nc2c(-c3ccc(F)cc3F)c(C)nn2C)c([N+](=O)[O-])c1 [Compound 141] | 99 | 0 | 99 | 83 | 100 | 99 | – | – | – | – | – | – | – | – | – | – | – | –
CCn1nc(C)c(-c2ccc(F)cc2Cl)c1Nc1c(F)cccc1[N+](=O)[O-] [Compound 71] | 99 | 82 | 99 | 98 | 100 | 100 | – | – | – | – | – | – | – | – | – | – | – | –
COc1cc(F)c(-c2c(C)nn(C)c2Nc2c(Cl)cc(F)cc2[N+](=O)[O-])c(F)c1 [Compound 2] | 99 | 94 | 99 | 61 | 100 | 100 | – | – | – | – | – | – | – | – | – | – | – | –
Cc1nn(C)c(Nc2c(F)cc(Cl)cc2[N+](=O)[O-])c1-c1ccc(F)cc1F [Compound 102] | 100 | 48 | 99 | 99 | 100 | 100 | – | – | – | – | – | – | – | – | – | – | – | –
Cc1nn(C)c(Nc2c(F)cc(Cl)cc2[N+](=O)[O-])c1-c1ccc(C#N)cc1Cl [Compound 115] | 94 | 77 | 99 | 99 | 100 | 100 | – | – | – | – | – | – | – | – | – | – | – | –
Cc1nn(C)c(Nc2c(F)cc(F)cc2[N+](=O)[O-])c1-c1c(F)cccc1F [Compound 75] | 90 | 0 | 57 | 98 | 99 | 100 | – | – | – | – | – | – | – | – | – | – | – | –
CCc1nn(C)c(Nc2ccc(OC)cc2[N+](=O)[O-])c1-c1ccc(F)cc1Cl [Compound 173] | 98 | 0 | 98 | 93 | 100 | 100 | – | – | – | – | – | – | – | – | – | – | – | –
